Here are results for 14 molecules from patent US20260109721A1, “IONIZABLE CATIONIC LIPIDS INCORPORATING SILICON: SYNTHESIS AND LNP FORMULATION” (priority 2023, published 2026).

The test system of series [1] is HeLa cells. Kind of series: Cell viability assessment with resazurin assay (Method A). In kind it is cell-based. The method, then:
(§1) The synthesized lipids were tested in term of in vitro transfection efficacy and toxicity on HeLa cells. In order to perform the mentioned biological tests, appropriate LNPs had to be formulated from the synthesized lipids. The formulation technique was different in Method A and B. The particle size, polydispersity index (PDI) and zeta potential of resulting LNPs were determined by means of Dynamic Light Scattering technique (DLS). Prior to biological testing the encapsulation efficiency (EE) of the loaded LNPs was determined by using RiboGreen RNA assay. In case of Method A Luc mRNA while in case of Method B GFP mRNA was transfected into the cells. In parallel with the transfection experiments, toxicity of the investigated LNPs was determined, in case of Method A resazurin assay while in case of Method B MTT assay was used. Additionally, the toxicity of the lipids was investigated on HepG2 cells and IC50 values were determined.
This protocol is used to determine the metabolic activity of cells as a measure for cell viability after exposure to potentially toxic substances. Resazurin is converted in mitochondria by reduction to resorufin, which has a much higher fluorescence at ˜600 nm compared to unconverted resazurin. A lower amount/percentage of conversion is correlated with reduced cellular metabolism and indirectly to cellular death and toxicity. Care must be taken with interpretation of the read-out, as 50% reduction in resazurin conversion may mean 50% reduction of cellular metabolism of 100% alive cells, or 50% of cells dead, and any combination in between.
• 1. Prepare 0.25 mg/ml stock solution resazurin in fresh cell culture medium. Resazurin is auto-reducing over time in solution, especially in medium, and fresh stocks should be prepared every 2-3 days. Stocks should be stored at 4° C. and protected from light. For HeLa cells, DMEM/F12 with 10% FCS is used. • 2. Dilute stock solution 10× in fresh cell culture medium to 0.025 mg/ml->ready for application on cells. For HeLa cells, DMEM/F12 with 10% FCS is used. • 3. Collect 96-well plate and replace cell-culture spent medium with 100 μl per well resazurin solution. Add some resazurin solution for background measurement in wells not containing cells. • 4. Incubate for 50 minutes in incubator at 37° C., 5% CO2, 95% RH. • 5. Transfer resazurin solution to a fresh 96- or 384-well plate. • 6. Measure in plate reader using 540/25 nm (excitation) and 610/40 nm (emission) using standard settings (PTM low/OD-1.0). • 7. Subtract the average background measurement from all samples. Set the average of the negative controls (well receiving OptiMEM only during transfection) to 100% and express all values as percentage of the control activity. Typically, at lower levels of treatment, elevation of metabolic activity is shown, whereas for toxic substances, at toxic concentrations sigmoidal curves can be obtained, with lower activity indicating higher toxicity.

The subject of series [2] is HeLa cells. The series is described as follows: Transfection efficiency with GFP mRNA (Method B). To be noted: 24 h, GFP fluorescence. The series is classed as cell-based. Here is the method:
as §1
In 1.5 mL eppendorf: • a) Place 2.9 uL of 0.33 ug/uL mRNA solution into Eppendorf tube • b) Add 1.94 μL of supplied ethanolic solution of tested lipid and immediately mix by working pipette up-and-down several times (work the solution up and down several times before transferring to saturate pipette tip with ethanol vapors) • c) Incubate for 15 minutes. • d) Add 536 μL of MEM. Mix the solution by vortexing. • e) Incubate for 30 minutes.
• MEM (Sigma, cat #M5650-500 mL) • Fetal Bovine Serum, FBS (Sigma, cat #F7524-500 mL) • Solutions of the formulations (see above) • Dilutor: 10 mL MEM+0,036 mL ethanol • Phosphate buffered saline, PBS
• 1. Fill the edge wells of a 96-well plate with 100 μL media. • 2. Plate 10,000 HeLa cells per well in 96 well plate. […] Total 60 wells should be seeded. Incubate in MEM+10% FBS at 37° C. in a humidified atmosphere with 5% CO2 for 24 h. • 3. Examine under the microscope. Confluency must be at or nearly 80%. • 4. Gently remove the media (aspirate). Place 50 μL of the following formulations: • a) 6 wells with dilutor—negative control • b) 6 wells with Lipofectamine-50—positive control. • c) 6 wells with Lipofectamine-6—secondary positive control • d) 6 wells per formulations—test samples. • 5. Incubate plate for 1 hours at 37° C. • 6. Add 50 μL of MEM+20% FBS (which will become 10% upon dilution). • 7. Place plates into the incubator at 37° C. in a humidified atmosphere with 5% CO2 for 23 h (total 24 hours of incubation). • 8. After 24 h, aspirate the media without disturbing the cells. Gently wash cells with 100 μL of warm PBS. Aspirate PBS. • 9. Add 100 μL of fresh PBS into washed cells and read GFP fluorescence on the plate reader. • 10. This can be followed with viability assessment with the MTT assay. Cell Viability Assessment with MTT Assay (Method B)

Like-named read-outs stand apart in the source and are kept apart here.

Turning to `CCCCCCCCC(CCCCCC)C(=O)OCCCCCCN(CCCCO)CCCCCCOC(=O)C(CCCCCC)CCCCCCCC` (stereo not drawn) [ALC-0315, reference compound], the “Cell Viability % (Average metabolic rate over all doses, Resazurin)” value (shortened to “Cell Viability %”) in the series with HeLa cells [1] is 97%. Further, in the series with HeLa cells [2], the “Transfection 89 ng mRNA/well” value came to 15892.1.

`CCCCCCCC/C=C\CCCCCCCCOC(=O)C(C)(C)CC(OCCCCCCCC/C=C\CCCCCCCC)O[Si](C)(C)OCCCCCCN(CCCCO)CCCCO` (stereo not drawn) [Example 86, (Z)-octadec-9-en-1-yl 18-hydroxy-14-(4-hydroxybutyl)-2,2,6,6-tetramethyl-4-(((Z)-octadec-9-en-1-yl)oxy)-5,7-dioxa-14-aza-6-silaoctadecanoate]: in the series with HeLa cells [1] (human), the “Cell Viability %” value amounted to 96%.

As for `CCCCCCCC/C=C\CCCCCCCCOC(=O)C(C)(C)CC(OCCCCCCCC/C=C\CCCCCCCC)O[Si](C)(C)OCCCCCCN1CCCCC1` (stereo not drawn) [Example 87, (Z)-octadec-9-en-1-yl 4-((dimethyl((6-(piperidin-1-yl)hexyl)oxy)silyl)oxy)-2,2-dimethyl-4-(((Z)-octadec-9-en-1-yl)oxy)butanoate], in the series on HeLa cells [1] (human), the “Cell Viability %” value stood at 84%.

For the molecule `CCCCCCCC/C=C\CCCCCCCCOC(=O)C(C)(C)CC(OCCCCCCCC/C=C\CCCCCCCC)O[Si](C)(C)OCCCCCCN(CCCO)CCCO` (stereo not drawn) [Example 88, (Z)-octadec-9-en-1-yl 1-hydroxy-4-(3-hydroxypropyl)-12,12,16,16-tetramethyl-14-(((Z)-octadec-9-en-1-yl)oxy)-11,13-dioxa-4-aza-12-silaheptadecan-17-oate], the “Cell Viability %” value in the series on HeLa cells [1] (human) is 91%.

Take `CCCCCCCC/C=C\CCCCCCCCOC(=O)C(C)(C)CC(OCCCCCCCC/C=C\CCCCCCCC)O[Si](C)(C)OCCCCCCN1CCCCC1CO` (stereo not drawn) [Example 89, (Z)-octadec-9-en-1-yl 4-((((6-(2-(hydroxymethyl)piperidin-1-yl)hexyl)oxy)dimethylsilyl)oxy)-2,2-dimethyl-4-(((Z)-octadec-9-en-1-yl)oxy)butanoate]: in the series with HeLa cells [1] (human), the “Cell Viability %” value is given as 96%.

On to `CCCCCCCC/C=C\CCCCCCCCOC(=O)C(C)(C)CC(OCCCCCCCC/C=C\CCCCCCCC)O[Si](C)(C)OCCCCCCN1CCCC1CO` (stereo not drawn) [Example 90, (Z)-octadec-9-en-1-yl 4-((((6-(2-(hydroxymethyl)pyrrolidin-1-yl)hexyl)oxy)dimethylsilyl)oxy)-2,2-dimethyl-4-(((Z)-octadec-9-en-1-yl)oxy)butanoate], for which, in the series on HeLa cells [1] (human), the “Cell Viability %” value was found to be 106%.

As for `CCCCCCCC/C=C\CCCCCCCCOC(=O)C(C)(C)CC(OCCCCCCCC/C=C\CCCCCCCC)O[Si](C)(C)OCCCCCCN(C)CCCCO` (stereo not drawn) [Example 91, (Z)-octadec-9-en-1-yl 18-hydroxy-2,2,6,6,14-pentamethyl-4-(((Z)-octadec-9-en-1-yl)oxy)-5,7-dioxa-14-aza-6-silaoctadecanoate], the “Cell Viability %” value in the series with HeLa cells [1] (human) worked out at 105%.

Consider `CCCCCCCC/C=C\CCCCCCCCOC(=O)C(C)(C)CC(OCCCCCCCC/C=C\CCCCCCCC)O[Si](C)(C)OCCCCCCN(C)CC(O)CO` (stereo not drawn) [Example 92, (Z)-octadec-9-en-1-yl 1,2-dihydroxy-4,12,12,16,16-pentamethyl-14-(((Z)-octadec-9-en-1-yl)oxy)-11,13-dioxa-4-aza-12-silaheptadecan-17-oate], for which the “Cell Viability %” value with HeLa cells [1] (human) turned out to be 111%.

For the molecule `CCCCCCCC/C=C\CCCCCCCCOC(=O)C(C)(C)CC(OCCCCCCCC/C=C\CCCCCCCC)O[Si](C)(C)OCCCCCCN(C)CCO` (stereo not drawn) [Example 93, (Z)-octadec-9-en-1-yl 1-hydroxy-3,11,11,15,15-pentamethyl-13-(((Z)-octadec-9-en-1-yl)oxy)-10,12-dioxa-3-aza-11-silahexadecan-16-oate], in the series on HeLa cells [1] (human), the “Cell Viability %” value was 106%.

In the case of `CCCCCCCC/C=C\CCCCCCCCOC(=O)C(C)(C)CCC(OCCCCCCCC/C=C\CCCCCCCC)O[Si](C)(C)OCCCCCCN(CCO)CCO` (stereo not drawn) [Example 94, (Z)-octadec-9-en-1-yl 1-hydroxy-3-(2-hydroxyethyl)-11,11,16,16-tetramethyl-13-(((Z)-octadec-9-en-1-yl)oxy)-10,12-dioxa-3-aza-11-silaheptadecan-17-oate], the “Cell Viability %” value with HeLa cells [1] (human) was 101%.

Turning to `CCCCCCCC/C=C\CCCCCCCCOC(=O)C(C)(C)CCC(OCCCCCCCC/C=C\CCCCCCCC)O[Si](C)(C)OCCCCCCN1CCOCC1` (stereo not drawn) [Example 95, (Z)-octadec-9-en-1-yl 5-((dimethyl((6-morpholinohexyl)oxy)silyl)oxy)-2,2-dimethyl-5-(((Z)-octadec-9-en-1-yl)oxy)pentanoate], the “Cell Viability %” value in the series on HeLa cells [1] (human) turned out to be 106%.

`CCCCCCCC/C=C\CCCCCCCCOC(=O)C(C)(C)CC(OCCCCCCCC/C=C\CCCCCCCC)O[Si](C)(C)OCCCCCCN(CCO)CCN(CCO)CCCCCCO[Si](C)(C)OC(CC(C)(C)C(=O)OCCCCCCCC/C=C\CCCCCCCC)OCCCCCCCC/C=C\CCCCCCCC` (stereo not drawn) [Example 96, di((Z)-octadec-9-en-1-yl) 14,17-bis(2-hydroxyethyl)-2,2,6,6,25,25,29,29-octamethyl-4,27-bis(((Z)-octadec-9-en-1-yl)oxy)-5,7,24,26-tetraoxa-14,17-diaza-6,25-disilatriacontanedioate]: in the series on HeLa cells [1] (human), the “Cell Viability %” value is on record as 104%.

As for `C#CCN(C)CCCCCCO[Si](C)(C)OC(CC(C)(C)C(=O)OCCCCCCCC/C=C\CCCCCCCC)OCCCCCCCC/C=C\CCCCCCCC` (stereo not drawn) [Example 97, (Z)-octadec-9-en-1-yl 4,12,12,16,16-pentamethyl-14-(((Z)-octadec-9-en-1-yl)oxy)-11,13-dioxa-4-aza-12-silaheptadec-1-yn-17-oate], in the series with HeLa cells [1] (human), the “Cell Viability %” value is recorded as 109%.

Consider `CCCCCCCCCCCOC(=O)CCCCCN(CCO)CCCCCCCC(=O)OC(CCCCCCCC)CCCCCCCC` [SM-102, reference compound], for which the “Cell Viability %” value with HeLa cells [1] is listed as 91%.
